Results: patent publication EP2674155B1, “Association of resveratrol and carboxymethylglucan” (priority 2012, dated 2013)

Tests used:
[1] = format: physicochemical
Method: The solubility of triacetyl-resveratrol and of trimethylether of resveratrol in an aqueous solution (of the same composition described in example 1) in presence of CMG was evaluated. In particular, the solubility in aqueous phase of triacetyl-resveratrol and of trimethyl ether of resveratrol was evaluated at first and this value was considered unitary.

[2] = Stability over time of resveratrol in aqueous solution (25°C, closed, protected from light), HPLC; format: physicochemical; conditions: resveratrol alone 0.03 mg/ml
Method: (§1) The chromatographic method devised for determining resveratrol provides the use of a HPLC Waters system constituted by a pump, 600 model, by a Waters self-sampler mod. 717 and by a UV-Visible Photodiode array detector mod 2996. The system is handled by the Millenium^32 software. The used chromatographic column is a Symmetry C-18 with length of 15 cm, associated to a specific pre-column of same material with length of 1 cm. The elution is performed under isocratic conditions by using the following mixtures: • 1) 30% [Acetic acid 0.1 % in methanol] e 70% [Acetic acid 0.1 % in water] • 2) 80% [Acetic acid 10% in water] and 20% [Acetonitrile]. For the measurements 50 µL of sample are taken, diluted in 500µL of mobile phase and an aliquot of 50µL is injected in HPLC.
The examined concentration of the solution of resveratrol was 0.03 mg/ml, corresponding to the maximum quantity which can be solubilized in water of the original product. […] The two solutions were kept under the same conditions described above for the solution of resveratrol only and they were evaluated in different moments as from the time of the preparation thereof. […]

[3] = Solubility of resveratrol in buffered aqueous solution in presence of CMG, determined by HPLC; format: physicochemical
Method: as §1
The solutions of CMG and resveratrol have always been prepared in a buffered, isotonic, physiological pH-containing aqueous solution, constituted by: • dipotassium phosphate 0.74% • sodium chloride 0.42% • potassium phosphate 0.175%
All solutions were cold-prepared and without using any organic solvent.
In order to evaluate the solubility, with consequent effect on the bioavailability thereof, formulations were prepared containing resveratrol in association with CMG at increasing concentrations (from 0.5 mg/ml to 10 mg/ml) in a ratio 1:1, in an aqueous solution of the above-mentioned composition. […]

VERO cellular line = experiment: Cellular metabolic activity, MTT assay; format: cell-based; conditions: VERO cells, resveratrol 0.5 mg/ml (2.2 mM), 6 hours after exposition, versus not treated cells (CTRL)
Method: The cellular metabolic activity is evaluated on VERO cellular line, by means of MTT cellular proliferation assay (3-(4,5-dimethylthiazole-2-il)-2,5-diphenyltetrazolium bromide). The test with MTT is a simple method for determining the metabolic activation of the cells and it is based upon the action of the mitochondrial enzyme succinate dehydrogenase reducing the tetrazolium salts in crystals of a bluish product called formazan. Therefore the reaction can take place only in the metabolically active cells and the value of optical density (O.D.), obtained by means of spectrophotometric reading, can be correlated to the quantity of existing vital cells.
Upon considering the application of the association CMG-resveratrol for the formulation of pharmaceutical products, dietary supplies, medical devices, cosmetic products, functional pieces of food, veterinary products, with consequent interaction with the biological systems of men and animals in general, even the possible cytotoxycity was evaluated. In particular tests of cellular metabolic activity in presence of resveratrol and CMG on VERO cellular line were performed. […]
6 hours after exposition to these substances MTT colouring agent was added, then the formazan produced by the metabolically active cells was extracted with isopropanol and the optical density measured at 570 nm by subtracting the reference value at 690 nm. […]

Compound	increase of solubility in presence of CMG, relative to solubility of the pure compound considered unitary [1]	stability of resveratrol in buffer solution ([2]; after 2 months)	stability of resveratrol in buffer solution ([2]; after 7 months)	concentration of CMG from which highly solubilizing action on resveratrol is confirmed [3] [µg/mL]	solubilization higher than what reported in literature [3]	reduction in the cellular metabolic activity (VERO cellular line) [%]
COc1ccc(/C=C/c2cc(OC)cc(OC)c2)cc1 [trimethylether of resveratrol]	three times	–	–	–	–	–
Oc1ccc(C=Cc2cc(O)cc(O)c2)cc1 [resveratrol, 3,4',5-trihydroxystilbene]	–	strong degradation	no more detected	≥ 250	at least 100 times	20
CC(=O)Oc1ccc(/C=C/c2cc(OC(C)=O)cc(OC(C)=O)c2)cc1 [triacetylresveratrol, triacetyl-resveratrol]	more than one and a half time	–	–	–	–	–
